Measured values published in ChEMBL document CHEMBL3576778, “Structure-Activity Relationship Studies of a Series of Semisynthetic Lipopeptides Leading to the Discovery of Surotomycin, a Novel Cyclic Lipopeptide Being Developed for the Treatment of Clostridium difficile-Associated Diarrhea” (J Med Chem, 2015).
In brackets after ≈: the same amount, converted by molar mass.

What was measured:
Type in all cases: functional
Enterococcus faecium = test: Antimicrobial activity against daptomycin-resistant Enterococcus faecium ATCC 6569 incubated anaerobically at 37 degC for 48 hrs by agar dilution method; settings: ATCC 6569, 48 h
Enterococcus faecalis = test: Antimicrobial activity against daptomycin-resistant Enterococcus faecalis ATCC 49452 incubated anaerobically at 37 degC for 48 hrs by agar dilution method; settings: ATCC 49452, 48 h
Clostridioides difficile = test: Antimicrobial activity against daptomycin-resistant Clostridium difficile NAP1 incubated anaerobically at 37 degC for 48 hrs by agar dilution method; settings: NAP1, 48 h
Staphylococcus aureus = test: Antimicrobial activity against daptomycin-susceptible Staphylococcus aureus ATCC 29213 incubated anaerobically at 37 degC for 48 hrs by agar dilution method; settings: ATCC 29213, 48 h

Row | SMILES | MIC (Enterococcus faecium) | MIC (Enterococcus faecalis) | MIC (Clostridioides difficile) | MIC (Staphylococcus aureus)
1 | C[C@H]1NC(=O)[C@@H](CC(=O)O)NC(=O)[C@H](CCCN)NC(=O)CNC(=O)[C@@H](NC(=O)[C@H](CC(=O)O)NC(=O)[C@H](CC(N)=O)NC(=O)[C@H](Cc2c[nH]c3ccccc23)NC(=O)C2CCCCCCCCCCC2)[C@@H](C)OC(=O)[C@H](CC(=O)c2ccccc2N)NC(=O)[C@H]([C@@H](C)CC(=O)O)NC(=O)[C@@H](CO)NC(=O)CNC(=O)[C@H](CC(=O)O)NC1=O | 32 µg/mL (≈ 19.3 µM) | > 32 µg/mL | 4 µg/mL (≈ 2.41 µM) | 1 µg/mL (≈ 0.602 µM)
2 | CCCCCCc1ccc(C(=O)N[C@@H](Cc2c[nH]c3ccccc23)C(=O)N[C@@H](CC(N)=O)C(=O)N[C@@H](CC(=O)O)C(=O)N[C@@H]2C(=O)NCC(=O)N[C@@H](CCCN)C(=O)N[C@H](CC(=O)O)C(=O)N[C@H](C)C(=O)N[C@@H](CC(=O)O)C(=O)NCC(=O)N[C@H](CO)C(=O)N[C@@H]([C@@H](C)CC(=O)O)C(=O)N[C@@H](CC(=O)c3ccccc3N)C(=O)O[C@@H]2C)cc1 | 32 µg/mL (≈ 19.3 µM) | > 32 µg/mL | 4 µg/mL (≈ 2.42 µM) | 1 µg/mL (≈ 0.604 µM)
3 | CCCCCCSc1ccc(-c2csc(C(=O)N[C@@H](Cc3c[nH]c4ccccc34)C(=O)N[C@@H](CC(N)=O)C(=O)N[C@@H](CC(=O)O)C(=O)N[C@@H]3C(=O)NCC(=O)N[C@@H](CCCN)C(=O)N[C@H](CC(=O)O)C(=O)N[C@H](C)C(=O)N[C@@H](CC(=O)O)C(=O)NCC(=O)N[C@H](CO)C(=O)N[C@@H]([C@@H](C)CC(=O)O)C(=O)N[C@@H](CC(=O)c4ccccc4N)C(=O)O[C@@H]3C)c2)cc1 | 16 µg/mL (≈ 9.05 µM) | > 32 µg/mL | 8 µg/mL (≈ 4.52 µM) | 8 µg/mL (≈ 4.52 µM)
4 | CCCOc1ccc(-c2ccc(C(=O)N[C@@H](Cc3c[nH]c4ccccc34)C(=O)N[C@@H](CC(N)=O)C(=O)N[C@@H](CC(=O)O)C(=O)N[C@@H]3C(=O)NCC(=O)N[C@@H](CCCN)C(=O)N[C@H](CC(=O)O)C(=O)N[C@H](C)C(=O)N[C@@H](CC(=O)O)C(=O)NCC(=O)N[C@H](CO)C(=O)N[C@@H]([C@@H](C)CC(=O)O)C(=O)N[C@@H](CC(=O)c4ccccc4N)C(=O)O[C@@H]3C)cc2)cc1 | 32 µg/mL (≈ 18.8 µM) | > 32 µg/mL | 4 µg/mL (≈ 2.35 µM) | 0.5 µg/mL (≈ 0.293 µM)
5 | CCCCCOc1ccc(-c2ccc(C(=O)N[C@@H](Cc3c[nH]c4ccccc34)C(=O)N[C@@H](CC(N)=O)C(=O)N[C@@H](CC(=O)O)C(=O)N[C@@H]3C(=O)NCC(=O)N[C@@H](CCCN)C(=O)N[C@H](CC(=O)O)C(=O)N[C@H](C)C(=O)N[C@@H](CC(=O)O)C(=O)NCC(=O)N[C@H](CO)C(=O)N[C@@H]([C@@H](C)CC(=O)O)C(=O)N[C@@H](CC(=O)c4ccccc4N)C(=O)O[C@@H]3C)cc2)cc1 | 2 µg/mL (≈ 1.15 µM) | 4 µg/mL (≈ 2.31 µM) | 2 µg/mL (≈ 1.15 µM) | 0.25 µg/mL (≈ 0.144 µM)
6 | CCCCCCOc1ccc(-c2ccc(C(=O)N[C@@H](Cc3c[nH]c4ccccc34)C(=O)N[C@@H](CC(N)=O)C(=O)N[C@@H](CC(=O)O)C(=O)N[C@@H]3C(=O)NCC(=O)N[C@@H](CCCN)C(=O)N[C@H](CC(=O)O)C(=O)N[C@H](C)C(=O)N[C@@H](CC(=O)O)C(=O)NCC(=O)N[C@H](CO)C(=O)N[C@@H]([C@@H](C)CC(=O)O)C(=O)N[C@@H](CC(=O)c4ccccc4N)C(=O)O[C@@H]3C)cc2)cc1 | 1 µg/mL (≈ 0.572 µM) | 2 µg/mL (≈ 1.14 µM) | 2 µg/mL (≈ 1.14 µM) | 0.5 µg/mL (≈ 0.286 µM)
7 | CCCCCCCOc1ccc(-c2ccc(C(=O)N[C@@H](Cc3c[nH]c4ccccc34)C(=O)N[C@@H](CC(N)=O)C(=O)N[C@@H](CC(=O)O)C(=O)N[C@@H]3C(=O)NCC(=O)N[C@@H](CCCN)C(=O)N[C@H](CC(=O)O)C(=O)N[C@H](C)C(=O)N[C@@H](CC(=O)O)C(=O)NCC(=O)N[C@H](CO)C(=O)N[C@@H]([C@@H](C)CC(=O)O)C(=O)N[C@@H](CC(=O)c4ccccc4N)C(=O)O[C@@H]3C)cc2)cc1 | 1 µg/mL (≈ 0.568 µM) | 4 µg/mL (≈ 2.27 µM) | 2 µg/mL (≈ 1.14 µM) | 0.25 µg/mL (≈ 0.142 µM)
8 | CCCCCCCCOc1ccc(-c2ccc(C(=O)N[C@@H](Cc3c[nH]c4ccccc34)C(=O)N[C@@H](CC(N)=O)C(=O)N[C@@H](CC(=O)O)C(=O)N[C@@H]3C(=O)NCC(=O)N[C@@H](CCCN)C(=O)N[C@H](CC(=O)O)C(=O)N[C@H](C)C(=O)N[C@@H](CC(=O)O)C(=O)NCC(=O)N[C@H](CO)C(=O)N[C@@H]([C@@H](C)CC(=O)O)C(=O)N[C@@H](CC(=O)c4ccccc4N)C(=O)O[C@@H]3C)cc2)cc1 | 4 µg/mL (≈ 2.25 µM) | 16 µg/mL (≈ 9.01 µM) | 1 µg/mL (≈ 0.563 µM) | 0.125 µg/mL (≈ 0.0704 µM)
9 | C[C@H]1NC(=O)[C@@H](CC(=O)O)NC(=O)[C@H](CCCN)NC(=O)CNC(=O)[C@@H](NC(=O)[C@H](CC(=O)O)NC(=O)[C@H](CC(N)=O)NC(=O)[C@H](Cc2c[nH]c3ccccc23)NC(=O)c2ccc(-c3ccc(Cl)cc3)cc2)[C@@H](C)OC(=O)[C@H](CC(=O)c2ccccc2N)NC(=O)[C@H]([C@@H](C)CC(=O)O)NC(=O)[C@@H](CO)NC(=O)CNC(=O)[C@H](CC(=O)O)NC1=O | > 32 µg/mL | > 32 µg/mL | 16 µg/mL (≈ 9.52 µM) | 4 µg/mL (≈ 2.38 µM)
